{
  "source": "patent US20170370933A1",
  "about": "“METHODS AND COMPOSITIONS FOR IMMUNOMODULATION” (Nodality, Inc., priority 2013, published 2017)",
  "key": {"[1]": {"tested_on": "p-STAT1, p-STAT3, p-STAT5 in whole blood cell subsets", "experiment": "SCNP of cytokine-induced JAK/STAT signaling in whole blood of healthy donors", "assay_type": "cell-based, human", "procedure": "Method: Whole blood from 11 healthy donors (20-65 yrs, 7 males, 4 females, 8 Caucasians, 2 Hispanics, 1 East Asian) was stimulated at 37° C. in 96-well plates with a low, medium, and high dose of GM-CSF, IFN-α, IL-27 and IL-6, each added separately, as described in Example 5. For each dose, a stimulation time course was run with 6 time points between 3 and 45 minutes. […] The SCNP assay was performed using a fluorophore-labeled antibody cocktail to simultaneously measure signaling in six distinct cell populations, including: neutrophils, CD20+ B cells, CD3+CD4+ T cells, CD3+CD4− T cells (CD8 enriched), CD3−CD20− lymphocytes (NK cell enriched), and CD14+ monocytes. The median fluorescent intensity of phospho (p)-STAT1(Y701), p-STAT3(Y705), and p-STAT5(Y694) were measured in each defined cell population for each experimental condition.\nKinetic response to varying concentrations of modulators was investigated in normal samples (i.e. samples from persons who have no diagnosis of disease). 11 normal samples were donated with informed consent by Nodality Inc. employees and processed at Nodality Inc. in South San Francisco, Calif. The samples were treated with 4 different modulators (GM-CSF, IL-27, IFNa and IL-6) at 4 different concentrations of the modulator and activation levels of pStat1, pStat3 and pStat5 were measured at different time points. Activation levels were measured at 3, 5, 10, 15, 30 and 45 minutes using flow cytometry-based single cell network profiling. The concentrations of the stimulators are tabulated below:\nActivation levels of different cell surface markers were also profiled using single cell network profiling and used in conjunction with gating to segregate the cells into discrete cell populations. In the gating analysis, SSC-A and FSC-A were first used to segregate lymphocytes from non-lymphocytes. CD14 and CD4 were then used to segregate the non-lymphocytes into populations of neutrophils and CD14+ cells (monocytes). CD3 and CD20 were then used to segregate the lymphocytes into populations of CD20+(B Cells), CD3+(T Cells) and CD20-CD3-cells. CD4 was used to segregate the CD3+ T cells into populations of CD3+CD4- and CD3+CD4+ T cells."}, "[2]": {"tested_on": "p-Stat1, p-Stat3, p-Stat4, p-Stat5, p-Stat6, p-p38 in PBMC subsets", "experiment": "SCNP of IFN-α signaling in PBMC from healthy donors", "assay_type": "cell-based, human", "procedure": "Methods: IFN-α-mediated signaling responses were measured by SCNP in PBMC samples from 12 healthy donors. PBMCs were processed for flow cytometry by fixation and permeabilization followed by incubation with fluorochrome-conjugated antibodies that recognize extracellular lineage markers and intracellular signaling molecules. The levels of several phospho-proteins (p-Stat1, p-Stat3, p-Stat4, p-Stat5, p-Stat6, and p-p38) were measured in multiple cell populations (CD14+ monocytes, CD20+ B cells, CD4+CD3+ T cells, and CD4−CD3+ T cells) at 15 minutes, 1, 2 and 4 hours post IFN-α exposure as described in Example 6."}, "TGFb modulated signaling": {"tested_on": "TGFb modulated signaling", "experiment": "in vitro Fresolimumab on TGFb modulated signaling in breast cancer samples", "assay_type": "cell-based, human", "procedure": "(§1) In this Example, samples of peripheral blood mononuclear cells (PBMCs) from breast cancer patients and from healthy donors were analyzed for IMR expression and by single cell network profiling, both modulated and unmodulated. Samples were taken before and after treatment in the breast cancer patients. IMR expression was profiled and correlated with immune signaling; differences in immune signaling by SCNP in pre- and post-treatment samples was investigated; the in vitro effects of immune checkpoint inhibitors on signaling in pre- and post-treatment samples was investigated; and the in vitro effects of Fresolimumab on TGFb modulated signaling in pre-treatment samples was profiled."}, "breast cancer patients": {"tested_on": "breast cancer patients", "experiment": "clinical study NCT01401062, Fresolimumab with radiotherapy in breast cancer: PBMC IMR expression, signaling, response", "assay_type": "in vivo, human", "procedure": "PBMC samples were collected from 7 healthy donors and 15 breast cancer patients enrolled in a clinical study NCT01401062, evaluating Fresolimumab (anti-TGF □) at 1 or 10 mg/kg IV in combination with radiotherapy (RT). Samples were cryopreserved then prepped and analyzed. Breast cancer donor samples were pre- and post-treatment. Basal expression of immunomodulatory receptors (IMRs) and short term signaling in response to modulation were profiled. Signaling following exposure to in vitro chemotherapeutic agents was also examined. Response to therapy in this trial was poor and therefore associations with clinical reponse was observational only.\nAnalysis of IMR expression and SCNP (modulated and unmodulated) was performed as detailed in previous Examples and in the specification."}, "[3]": {"tested_on": "TCR→p-ERK/p-AKT in T cells", "experiment": "in vitro Keytruda effect on TCR signaling in PBMC of breast cancer patients and healthy donors", "assay_type": "cell-based, human", "procedure": "as §1\nPBMC samples were collected from 7 healthy donors and 15 breast cancer patients enrolled in a clinical study NCT01401062, evaluating Fresolimumab (anti-TGF □) at 1 or 10 mg/kg IV in combination with radiotherapy (RT). Samples were cryopreserved then prepped and analyzed. Breast cancer donor samples were pre- and post-treatment. Basal expression of immunomodulatory receptors (IMRs) and short term signaling in response to modulation were profiled. […]\nIn addition, T cell receptor (TCR) signaling was studied using SCNP. The TCR was stimulated, as described elsewhere herein, and downstream readouts, in particular, p-ERK and p-AKT, p-PLCg2, p-CD3z, p-s6, and IkB were measured."}, "[4]": {"tested_on": "immune signaling pathways in PBMC subsets", "experiment": "SCNP of PBMC from melanoma patients pre- and post-ipilimumab treatment", "assay_type": "in vivo, human", "conditions": "for IL-15→p-STAT5 signaling in post-treatment samples: CD4− T cells, vs healthy and untreated donor samples", "procedure": "Methods: 3 healthy and 13 melanoma patient cryopreserved samples, including 7 collected pre-treatment, and 6 collected post-treatment, were analyzed by SCNP. […] Cells were assessed for viability, cell subset frequencies and signaling in response to different modulators. A node is defined as combination of modulator and intracellular readout (e.g. IL-6→p-STAT3). Cytokine and TCR- or Fc[…]R-induced activation of STAT1, 3, 5, CD3 □ and Erk was evaluated in multiple immune cell populations and comparisons made based on disease, treatment time point and clinical responses."}, "[5]": {"tested_on": "CTLA-4 interaction with CD80/86 in T cells", "experiment": "in vitro T cell activation on αCD3-coated plate with ipilimumab, 48 hr", "assay_type": "cell-based", "conditions": "PBMCs on αCD3-coated plate, vs isotype control", "procedure": "In this example, PBMCs were added to a αCD3-coated plate to induce T cell activation, then ipilimumab was added to block CTLA-4 interaction with CD80/86. Isotype control was added to a reference well. The cells were incubated at 37° C. for 48 hr, then fixed, permeabilized, stained, and data acquired as described in the Examples above. Cells were gated by CD3, CD4, and CD8, and the readouts were IL-2, TNF-α, Cyclin A2, and CTLA-4. Ipilimumab augmented CTLA-4 upregulation, cytokine production, and proliferation."}, "metastatic melanoma": {"tested_on": "metastatic melanoma", "conditions": "ipilimumab alone compared to gp100 vaccine alone; previously treated metastatic melanoma; p=0.003; cited from earlier work"}, "[6]": {"conditions": "IL-6 stimulation, CD4+ T cells and monocytes, whole blood"}},
  "note": "Entries after “also recorded” stand apart in the source; their conditions may differ.",
  "data": [
    {"substance": "IL-6: cytokine modulator", "values": [
      {"measurement": "time at which signal resolution fell to baseline levels", "setting": "[1]; IL-6, monocytes (CD4+ T cells sustained)", "value": 45, "unit": "min"},
      {"measurement": "time of peak p-STAT1 and p-STAT5", "setting": "[1]; [6]", "value": "10 to 15", "unit": "min"},
      {"measurement": "time of peak p-STAT3 levels", "setting": "[1]; [6]", "value": 3, "unit": "min"},
      {"measurement": "IL-6 induced activation in neutrophils", "setting": "[1]; compared to CD4+ T cells and monocytes", "value": "very low"},
      {"measurement": "cell subsets showing induced signaling", "setting": "[1]; whole blood, six cell populations", "value": "only observed in CD4+ T cells and monocytes"}
    ]},
    {"substance": "GM-CSF: cytokine modulator", "values": [
      {"measurement": "GM-CSF→p-STAT5 signal termination", "setting": "[1]; monocytes, neutrophils maintained persistent p-STAT5", "value": "efficient signal termination in monocytes"}
    ]},
    {"substance": "IFN-α", "values": [
      {"measurement": "time of peak activation of all 3 STAT proteins", "setting": "[1]; IFN-α stimulation, all cell subsets", "value": 10, "unit": "min"},
      {"measurement": "signaling resolution in monocytes", "setting": "[1]; IFN-α, signal sustained in all other subsets", "value": "almost complete at 45 minutes"},
      {"measurement": "activation of p-Stat4", "setting": "[2]; PBMC subsets", "value": "detected in T cell subsets (both CD4+ and CD4− T cells), but not in monocytes or B cells"},
      {"measurement": "time of peak response for activation of p-Stat4, p-Stat6, p-p38", "setting": "[2]; majority of cell types, PBMC", "value": 1, "unit": "h"},
      {"measurement": "time of peak response for activation of p-Stat1, p-Stat3, p-Stat5", "setting": "[2]; most cell types, PBMC", "value": 15, "unit": "min"}
    ]},
    {"substance": "Fresolimumab: anti-TGF, a TGFb inhibitor", "values": [
      {"measurement": "in vitro Fresolimumab activity", "setting": "TGFb modulated signaling", "value": "weak"},
      {"measurement": "response to therapy", "setting": "breast cancer patients; Fresolimumab in combination with radiotherapy", "value": "poor"},
      {"measurement": "PD-L1 expression in NK cells over the course of treatment", "setting": "breast cancer patients; breast cancer patients' PBMC", "value": "trend was observed toward increasing PD-L1 expression"},
      {"measurement": "TIM-3 expression in monocytes with treatment", "setting": "breast cancer patients; breast cancer patients' PBMC", "value": "decrease in TIM-3 expression"},
      {"measurement": "IMR expression patterns by dose", "setting": "breast cancer patients; higher dose (1 or 10 mg/kg IV) of Fresolimumab, patient PBMC", "value": "trend toward higher IMR expression patterns"},
      {"measurement": "TCR mediated signaling by dose", "setting": "breast cancer patients; higher dose of Fresolimumab, patient PBMC", "value": "trend toward reduced TCR mediated signaling"}
    ]},
    {"substance": "Keytruda: checkpoint blockade agent that reduces communication through the PD-1 pathway", "values": [
      {"measurement": "effect on TCR signaling (p-ERK and p-AKT readouts)", "setting": "[3]; PD-1 negative (low PD-1 expression)", "value": "no effect"},
      {"measurement": "effect on TCR signaling (p-ERK and p-AKT readouts)", "setting": "[3]; PD-1 positive (high expression) T cells", "value": "clear trend toward an increase in signaling; also recorded: increased TCR→AKT and p-ERK"}
    ]},
    {"substance": "ipilimumab: fully human monoclonal antibody that blocks cytotoxic T-lymphocyte-associated antigen 4 (CTLA-4)-mediated T-cell suppression", "values": [
      {"measurement": "IL-15→p-STAT5 signaling in post-treatment samples", "setting": "[4]", "value": "diminished"},
      {"measurement": "IL-15→p-STAT5 signaling in post-treatment samples", "setting": "[4]; listed as Ipilimumab", "value": "reduced IL-15→p-STAT5 signaling"},
      {"measurement": "TCR→p-Erk, TCR→p-CD3z signaling in post-treatment samples", "setting": "[4]; CD45RA+ but not CD45RA− CD4+ and CD4− subsets, vs healthy donors and pre-treatment melanoma samples", "value": "diminished"},
      {"measurement": "CTLA-4 upregulation", "setting": "[5]", "value": "augmented"},
      {"measurement": "cytokine production (IL-2, TNF-α)", "setting": "[5]", "value": "augmented"},
      {"measurement": "proliferation (Cyclin A2)", "setting": "[5]", "value": "augmented"},
      {"measurement": "hazard ratio for death", "setting": "metastatic melanoma", "value": 0.66}
    ]}
  ]
}
